ChEMBL document CHEMBL1201862, “PubChem BioAssay data set” (2004)
Activity calls are given as the source filed them.

Legend:
[1] = biological target: T1, RNA-binding protein pos-1 (Caenorhabditis elegans, UniProt G5EF15); test: disruptors of C. elegans POS-1 RNA interaction – biochemical, fluorescence polarization, dose response (AID 1964);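 further: purified POS-1 fused to maltose binding protein made in E. coli; potency of compounds blocking POS-1 binding to fluorescent RNA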
T1 sequence (G5EF15 whole entry): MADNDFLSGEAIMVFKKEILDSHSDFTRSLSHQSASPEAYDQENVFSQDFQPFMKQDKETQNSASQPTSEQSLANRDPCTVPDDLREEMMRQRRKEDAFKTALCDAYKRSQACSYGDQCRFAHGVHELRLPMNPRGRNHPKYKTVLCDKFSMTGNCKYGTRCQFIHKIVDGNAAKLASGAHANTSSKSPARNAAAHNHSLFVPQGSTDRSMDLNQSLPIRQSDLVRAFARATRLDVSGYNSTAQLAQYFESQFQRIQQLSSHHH

[2] = biological target: T2, Zinc finger protein mex-5 (Caenorhabditis elegans, UniProt Q9XUB2); test: potency of MEX-5 RNA-binding blockers – biochemical, C. elegans, fluorescence polarization, dose response (AID 1960)
T2 sequence (Q9XUB2 whole entry): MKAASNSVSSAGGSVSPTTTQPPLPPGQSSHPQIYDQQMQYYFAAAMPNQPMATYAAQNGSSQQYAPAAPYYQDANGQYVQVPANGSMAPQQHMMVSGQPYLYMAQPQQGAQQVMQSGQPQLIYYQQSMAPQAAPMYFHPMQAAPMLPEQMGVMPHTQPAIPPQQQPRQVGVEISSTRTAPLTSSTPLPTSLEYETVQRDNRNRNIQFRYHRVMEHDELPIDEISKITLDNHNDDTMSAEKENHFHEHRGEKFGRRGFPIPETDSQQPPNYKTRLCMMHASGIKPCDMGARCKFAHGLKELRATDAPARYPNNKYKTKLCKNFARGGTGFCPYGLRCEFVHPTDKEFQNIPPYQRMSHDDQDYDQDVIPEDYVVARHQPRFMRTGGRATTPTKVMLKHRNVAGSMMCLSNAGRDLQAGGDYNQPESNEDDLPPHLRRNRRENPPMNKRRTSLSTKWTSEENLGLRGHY

[3] = biological target: T3, Heat shock factor protein 1 (Mus musculus, UniProt P38532); test: decrease of HSF1-responsive luciferase luminescence – cell-based, NIH3T3, dose retest, confirmation (AID 2382); format: functional;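 further: NIH3T3 fibroblasts with HSF1-driven luciferase reporter stressed by proteasome inhibitor MG132; luminescence from HSF1-driven luciferase expression after 8 hours of MG132 stress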
T3 sequence (P38532 whole entry): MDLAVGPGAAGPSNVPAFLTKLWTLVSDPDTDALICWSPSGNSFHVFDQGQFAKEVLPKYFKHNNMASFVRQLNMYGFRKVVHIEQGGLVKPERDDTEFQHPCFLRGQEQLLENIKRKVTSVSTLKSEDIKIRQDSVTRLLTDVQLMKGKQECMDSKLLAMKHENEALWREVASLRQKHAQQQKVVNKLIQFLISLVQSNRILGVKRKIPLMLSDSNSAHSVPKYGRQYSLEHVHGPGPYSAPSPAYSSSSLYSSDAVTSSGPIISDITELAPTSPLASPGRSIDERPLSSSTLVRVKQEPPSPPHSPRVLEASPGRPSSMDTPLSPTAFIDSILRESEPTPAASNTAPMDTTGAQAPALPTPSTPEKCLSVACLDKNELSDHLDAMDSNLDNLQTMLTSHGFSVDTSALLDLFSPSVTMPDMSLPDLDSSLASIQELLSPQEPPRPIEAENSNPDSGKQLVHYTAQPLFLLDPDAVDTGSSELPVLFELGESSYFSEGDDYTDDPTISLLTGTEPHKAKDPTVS

[4] = biological target: G-protein coupled receptor 55 (Homo sapiens, UniProt Q9Y2T6); test: selective activators of receptor GPR55 – imaging, U2OS cells, beta-arrestin-GFP redistribution, primary screen (AID 1961); format: functional
G-protein coupled receptor 55, sequence (Q9Y2T6 whole entry): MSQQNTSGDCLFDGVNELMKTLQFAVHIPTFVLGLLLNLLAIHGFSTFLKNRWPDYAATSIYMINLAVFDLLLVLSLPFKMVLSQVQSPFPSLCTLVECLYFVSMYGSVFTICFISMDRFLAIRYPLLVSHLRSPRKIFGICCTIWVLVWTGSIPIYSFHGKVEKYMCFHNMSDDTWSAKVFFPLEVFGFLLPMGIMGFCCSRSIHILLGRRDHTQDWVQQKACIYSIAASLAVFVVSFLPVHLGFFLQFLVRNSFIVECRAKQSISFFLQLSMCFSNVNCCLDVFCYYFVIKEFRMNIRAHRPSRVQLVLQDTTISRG

[5] = Luminescence Cell-Based Dose Retest to Confirm Inhibitors of Cancer Stem Cells. [Related pubchem assays (depositor defined):AID2717, AID2721]; format: functional; conditions: Homo sapiens
[6] = activation of miR-122 Renilla sensor silencing – cell-based, Huh7 psiCHECK-miR122, Renilla luciferase, cherry-picked, dose response (AID 651956); format: functional;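 further: huh7 hepatoma cells stably carrying a psiCHECK-2 miR-122 sensor plasmid; renilla luciferase signal reporting endogenous miR-122 activity after 48 h compound exposure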
[7] = general mammalian cell viability loss – inhibitor set, cherry-pick, set 2, cytotoxicity control for miR-122 modulator project, dose response (AID 720697); format: functional, cell-based
[8] = general mammalian cell viability loss – activator set, cherry-pick, cytotoxicity control for miR-122 modulator project, dose response (AID 720690); format: functional, cell-based;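 further: HEK293T human cells scored for general mammalian cytotoxicity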
[9] = biological target: T4, RNA-editing ligase 1, mitochondrial (Trypanosoma brucei brucei, UniProt P86926); test: inhibition of trypanosome RNA editing ligase – biochemical, fluorescence, Trypanosoma brucei, dose response (AID 1117295); format: functional
T4 sequence (P86926 whole entry): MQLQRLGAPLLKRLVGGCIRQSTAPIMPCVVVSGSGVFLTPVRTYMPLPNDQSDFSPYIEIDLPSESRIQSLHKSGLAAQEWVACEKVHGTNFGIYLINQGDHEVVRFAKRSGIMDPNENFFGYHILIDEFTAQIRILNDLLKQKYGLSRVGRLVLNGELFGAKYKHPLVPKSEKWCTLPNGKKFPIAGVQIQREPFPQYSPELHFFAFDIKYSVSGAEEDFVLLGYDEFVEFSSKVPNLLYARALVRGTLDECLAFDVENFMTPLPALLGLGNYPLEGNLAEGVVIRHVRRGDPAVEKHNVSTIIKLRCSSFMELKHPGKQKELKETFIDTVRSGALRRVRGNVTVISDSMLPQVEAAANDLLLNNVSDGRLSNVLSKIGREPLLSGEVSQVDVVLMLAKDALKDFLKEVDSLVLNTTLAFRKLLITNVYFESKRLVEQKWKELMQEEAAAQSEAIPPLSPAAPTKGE

[10] = biological target: T5, Methionyl-tRNA synthetase, putative (Trypanosoma brucei brucei, UniProt Q38C91); format: functional, Trypanosoma brucei brucei strain 927/4 GUTat10.1
T5 sequence (Q38C91 whole entry): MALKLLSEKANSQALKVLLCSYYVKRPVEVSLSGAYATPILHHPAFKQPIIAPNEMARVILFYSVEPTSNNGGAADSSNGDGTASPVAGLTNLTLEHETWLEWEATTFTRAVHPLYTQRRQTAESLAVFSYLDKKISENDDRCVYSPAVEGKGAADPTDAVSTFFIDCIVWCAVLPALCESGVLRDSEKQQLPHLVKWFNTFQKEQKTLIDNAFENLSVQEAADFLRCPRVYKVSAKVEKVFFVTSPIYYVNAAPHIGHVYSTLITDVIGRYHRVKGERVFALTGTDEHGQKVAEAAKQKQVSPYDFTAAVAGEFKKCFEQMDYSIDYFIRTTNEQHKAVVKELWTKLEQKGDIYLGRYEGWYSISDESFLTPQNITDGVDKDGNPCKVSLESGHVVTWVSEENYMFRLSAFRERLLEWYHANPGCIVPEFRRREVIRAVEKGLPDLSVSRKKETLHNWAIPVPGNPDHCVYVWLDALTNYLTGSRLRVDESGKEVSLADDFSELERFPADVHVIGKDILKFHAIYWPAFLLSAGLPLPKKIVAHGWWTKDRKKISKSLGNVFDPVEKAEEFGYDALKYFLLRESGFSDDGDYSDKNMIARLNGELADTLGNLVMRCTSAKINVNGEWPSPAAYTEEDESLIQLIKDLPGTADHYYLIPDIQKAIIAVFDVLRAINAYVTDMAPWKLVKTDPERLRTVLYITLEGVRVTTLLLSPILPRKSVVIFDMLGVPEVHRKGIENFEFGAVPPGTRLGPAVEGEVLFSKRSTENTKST

[11] = Counterscreen for inhibitors of Trypanosoma brucei methionyl tRNA synthetase (MetRS): Luminescence-based cell-based high throughput dose response assay to identify compounds that are cytotoxic to Jurkat human T lymphocyte cells.; format: functional
[12] = biological target: T5, Methionyl-tRNA synthetase, putative; format: functional, Trypanosoma brucei brucei strain 927/4 GUTat10.1; remark: listed apart in the source
[13] = viability loss in HepG2 liver cells – cell-based, ATP luminescence, cherry-pick, set 6, cytotoxicity control, dose response (AID 1053125); format: functional
cells [14] = conditions: A549
cells [15] = conditions: HEK293
[16] = luciferase reporter signal suppression in cells – H4 neuroglioma cells, luminescence, dose response (AID 1990); format: functional, cell-based
[17] = Luminescence Cell-Based Dose Response HTS to Identify Inhibitors of 5'UTR Stem-Loop Driven Prion Protein mRNA Translation in H4 Neuroglioblastoma Cells. [Related pubchem assays: 1827 (Project Summary), 1813 (Primary HTS)]; format: functional
[18] = alpha-synuclein stem-loop luciferase translation blockers – H4 neuroglioma cells, luminescence, confirmation (AID 1988); format: functional, cell-based
[19] = biological target: T6, Mannose-6-phosphate isomerase (Homo sapiens, UniProt P34949); test: MPI enzyme activity inhibition – biochemical, fluorescence intensity, coupled assay, primary screen (AID 1209)
T6 sequence (P34949 whole entry): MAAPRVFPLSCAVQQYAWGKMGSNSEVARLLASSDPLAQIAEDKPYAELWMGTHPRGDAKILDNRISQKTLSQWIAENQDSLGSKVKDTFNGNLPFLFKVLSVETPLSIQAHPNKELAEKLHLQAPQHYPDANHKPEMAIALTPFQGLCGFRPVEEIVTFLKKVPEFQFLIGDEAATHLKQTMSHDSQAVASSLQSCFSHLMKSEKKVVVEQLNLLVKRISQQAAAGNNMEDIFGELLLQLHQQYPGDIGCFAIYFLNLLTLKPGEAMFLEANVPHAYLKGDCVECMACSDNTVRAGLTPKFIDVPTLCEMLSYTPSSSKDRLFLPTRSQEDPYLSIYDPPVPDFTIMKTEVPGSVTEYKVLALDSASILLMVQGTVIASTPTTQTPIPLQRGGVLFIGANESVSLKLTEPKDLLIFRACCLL

Genome polyprotein = Genome polyprotein (dengue virus type 2, UniProt P29990); test: flavivirus cap methylation enzyme inhibition – biochemical, confirmation dose response, primary screen (AID 588689); format: functional
Genome polyprotein, sequence (P29990 2492-3391 limits assumed): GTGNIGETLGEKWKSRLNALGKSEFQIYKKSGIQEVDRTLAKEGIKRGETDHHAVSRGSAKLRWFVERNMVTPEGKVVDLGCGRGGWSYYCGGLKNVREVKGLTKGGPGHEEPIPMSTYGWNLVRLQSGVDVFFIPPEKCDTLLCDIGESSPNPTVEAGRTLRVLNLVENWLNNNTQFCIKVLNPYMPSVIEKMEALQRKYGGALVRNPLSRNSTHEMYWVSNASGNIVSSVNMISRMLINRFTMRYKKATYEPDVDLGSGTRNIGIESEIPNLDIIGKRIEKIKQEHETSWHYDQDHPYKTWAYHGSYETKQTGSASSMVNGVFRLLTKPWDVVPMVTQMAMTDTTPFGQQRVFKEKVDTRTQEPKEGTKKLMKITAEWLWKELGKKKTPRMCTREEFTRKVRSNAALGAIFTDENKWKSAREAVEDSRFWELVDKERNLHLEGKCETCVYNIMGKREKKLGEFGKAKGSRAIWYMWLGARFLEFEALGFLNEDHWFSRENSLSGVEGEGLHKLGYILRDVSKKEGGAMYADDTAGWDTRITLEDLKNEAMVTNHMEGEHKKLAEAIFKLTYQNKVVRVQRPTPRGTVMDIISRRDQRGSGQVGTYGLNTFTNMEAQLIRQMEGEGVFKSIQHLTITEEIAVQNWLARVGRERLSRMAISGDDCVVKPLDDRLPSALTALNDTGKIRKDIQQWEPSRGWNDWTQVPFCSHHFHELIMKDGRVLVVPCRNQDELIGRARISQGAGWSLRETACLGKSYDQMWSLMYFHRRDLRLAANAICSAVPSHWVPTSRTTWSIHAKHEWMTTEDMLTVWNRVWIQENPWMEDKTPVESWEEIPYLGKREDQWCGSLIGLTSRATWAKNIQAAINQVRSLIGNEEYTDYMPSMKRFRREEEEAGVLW

[20] = toxicity toward HepG2 hepatoma cells – cell-based, dry powder samples, cytotoxicity control, dose response (AID 720568); format: functional
HEK293 = test: EBV LMP1 TES2 canonical NF-kB signalling blockers – cell-based, HEK293, luciferase, cherry-pick, dose response (AID 588343); format: functional; conditions: Homo sapiens
cells [21] = format: functional, cell-based
[22] = biological target: T7, Nuclear receptor subfamily 0 group B member 1 (Homo sapiens, UniProt P51843); format: functional, cell-based;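 further: HEK293T cells transfected with SF-1 and DAX-1 plus StAR promoter luciferase reporter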
T7 sequence (P51843 whole entry): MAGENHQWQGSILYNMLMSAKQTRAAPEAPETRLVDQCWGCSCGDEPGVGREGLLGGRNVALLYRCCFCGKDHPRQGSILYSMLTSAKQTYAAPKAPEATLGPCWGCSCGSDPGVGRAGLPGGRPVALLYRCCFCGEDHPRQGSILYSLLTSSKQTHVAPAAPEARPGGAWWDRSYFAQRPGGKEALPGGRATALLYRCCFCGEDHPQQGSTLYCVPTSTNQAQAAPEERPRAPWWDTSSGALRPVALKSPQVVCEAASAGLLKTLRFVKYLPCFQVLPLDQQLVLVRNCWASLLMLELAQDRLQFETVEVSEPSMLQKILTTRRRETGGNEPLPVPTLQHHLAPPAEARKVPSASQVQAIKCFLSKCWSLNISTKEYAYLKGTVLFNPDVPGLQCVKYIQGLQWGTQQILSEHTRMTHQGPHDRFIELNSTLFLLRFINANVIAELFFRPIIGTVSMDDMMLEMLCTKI

[23] = HeLa cell viability loss – plate reader, dry powder, cytotoxicity control, dose response (AID 651946); format: functional, cell-based

## COc1cc2c(cc1OC)C(c1ccc(-c3ccc(Cl)c(Cl)c3)o1)=NCC2
[1]
  EC50: > 300 µM (inconclusive)
[2]
  EC50: > 300 µM (not active)
[3]
  EC50: > 195 µM (not active)
[4]
  EC50: > 32 µM (inactive)
[5]
  AC50: 4.34 µM (active)
[6]
  AC50: 25.7 µM (active)
[7]
  AC50: 8.91 µM (active)
[8]
  AC50: 9.82 µM (active)
[9]
  IC50: 35.8 µM (inactive)

## COC(=O)c1sc(-c2ccc(Cl)cc2)cc1NC(=O)COCC(=O)O
[10]
  IC50: 18.7 µM (inactive)
[11]
  IC50: 83.2 µM (inactive)
[12]
  IC50: 13.8 µM (inactive)

## N#CC1=C(N)Oc2cc(N)ccc2C1c1ccc(F)cc1F (stereo not given)
[13]
  AC50: 45.3 µM (active)
Cells [14]
  AC50: 31.8 µM (active)
Cells [15]
  AC50: > 52 µM (inactive)

## O=C1CCNc2cc3ccccc3cc21
[16]
  EC50: > 60 µM (not active)
[17]
  EC50: > 120 µM (not active)
[18]
  EC50: 5.91 µM (active)
[19]
  IC50: 23.2 µM (active)
Genome polyprotein
  IC50: > 100 µM (active)
[20]
  AC50: 5.57 µM (active)

## C(=Cc1nc2ccccc2o1)c1ccc2c(c1)OCO2
HEK293
  AC50: 2.91 µM (active)
Cells [21]
  IC50: > 67.6 µM (inactive)
[22]
  IC50: > 0.0927 µM (active)

## COCCOCCSc1nnc(-c2ccccc2)o1
[23]
  AC50: > 52 µM (inactive)
